Key:
[1] = Stability against hydrolytic cleavage, aprotic versus aqueous solutions; type: physicochemical; details: aprotic solutions compared to aqueous solutions
From the text: It is an additional aspect of the invention that the high solubility of the L-DOPA ester in aprotic solvents suitable for parenteral application (such as e.g. N-Methylpyrrolidone, Polysorbat 80, Dimethylacetamide, Solutol HS 15, Glycerol, Ethanol) also relates to L-DOPA esters known before the application date of WO 2016/155888 A1, in particular L-DOPA ethyl ester described in WO 2012/079072 A2 (Heller et al.). […] Moreover the stability is much higher even at pH-values of 5-8. L-DOPA ethyl ester solutions in aprotic solvents suitable for parenteral application could therefore solve tolerability problems known from earlier attempts to use L-DOPA ethyl ester in the treatment of neurological diseases.

[2] = Enzymatic cleavage of L-DOPA esters in human plasma (ex vivo); details: pH 7.4, 37° C., after 2 hours, n=3
Method: After 2, 15, 30, 45, 60 and 120 min 200 μL sample were taken, immediately deproteinized (200 μL 0.4N PCA), precipitated (200 μL 0.1% formic acid) and centrifuged. […] For purpose of comparison L-Dopa Ethyl Ester was investigated under same conditions.

Row | Compound | stability against hydrolytic cleavage [1] | converted to L-Dopa [2]
1 | CCOC(=O)[C@@H](N)Cc1ccc(O)c(O)c1 [L-DOPA Ethyl Ester] | higher stability against hydrolytic cleavage compared to aqueous solutions | 50%
2 | N[C@@H](Cc1ccc(O)c(O)c1)C(=O)OCC(O)CO (stereo partly drawn) [L-DOPA Glycerin ester] |  | 60%
